Experimental data published in paper PMC8764033, “Single-molecule analysis of specificity and multivalency in binding of short linear substrate motifs to the APC/C” (Nature Communications, 2022).
Where two headings read alike, the source gives them in different places. Where a SMILES comes first, the peptide text is derived from it.

Experiments:
[1] = test system: Cdc20; settings: cited from earlier work
Excerpt: This specificity raises the exciting possibility of activator-specific targeted protein degradation as a therapeutic application.

[2] = molecular target: T1, Cdh1 WD40 domain (yeast) (Saccharomyces cerevisiae, UniProt P53197); assay: Fluorescence anisotropy, 10 nM Cy5-labeled degron peptide, yeast Cdh1 WD40; assay type: binding
T1 construct: the WD40 domains of yeast Cdh1 (aa 241–550; pNH144); 2xStrep-Tag II (N); made in house; host or cells: Sf9 insect cells (baculovirus)
T1 sequence (P53197 241-550): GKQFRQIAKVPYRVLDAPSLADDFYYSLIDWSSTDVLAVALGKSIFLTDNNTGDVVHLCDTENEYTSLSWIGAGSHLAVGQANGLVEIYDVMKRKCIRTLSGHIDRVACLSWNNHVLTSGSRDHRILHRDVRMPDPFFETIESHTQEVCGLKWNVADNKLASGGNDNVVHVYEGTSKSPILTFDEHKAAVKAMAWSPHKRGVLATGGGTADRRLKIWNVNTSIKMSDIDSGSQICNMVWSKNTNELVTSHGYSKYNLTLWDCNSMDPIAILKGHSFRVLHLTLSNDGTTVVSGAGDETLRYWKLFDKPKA
Excerpt: To determine the affinities of APC/C degrons for their binding sites, we first used conventional equilibrium binding assays of degron peptide binding to the activator. We used the baculovirus system to produce the WD40 domain of Cdh1 from the budding yeast Saccharomyces cerevisiae and measured fluorescence anisotropy to assess the binding of fluorescently-tagged degron peptides at increasing activator concentrations. The WD40 domain of yeast Cdc20 could not be expressed and was not studied.
(§1) Activators were cloned into the pFastBac HT A vector, with an N-terminal 2xStrep-Tag II. For some experiments, we constructed vectors for expression of the WD40 domains of yeast Cdh1 (aa 241–550; pNH144), human Cdh1 (aa 165–484; pNH164), or human Cdc20 (aa 162–484; pNH188). For SMOR, a C-terminal GFP tag was added. Bacmid plasmids are listed in Supplementary Table 3. Plasmids were transformed into DH10Bac cells, and purified Bacmid was used to transfect Sf9 cells to generate P1 baculovirus, which was used to generate P2 virus. SF9 cells were infected with the P2 virus for 48 h. Flash-frozen pellets were lysed by sonication or high-pressure homogenization in lysis buffer B (50 mM Tris-HCl pH 8, 150 mM KCl, 0.5 mM EDTA, 1 mM DTT, 10% Glycerol, EDTA-free protease inhibitor tablet, 1 µg ml^−1 pepstatin A). After the lysate was applied to the StrepTrap column, the column was washed with wash buffer B (lysis buffer B lacking protease inhibitors) and eluted in the same buffer containing 2.5 mM desthiobiotin.
Fluorescent degron peptides carried a C-terminal Cy5 label (CPC Scientific) and are listed in Supplementary Table 4. For anisotropy experiments, 10 nM fluorescent peptide was mixed with various concentrations of purified Cdh1 WD40 in wash buffer B at room temperature for 1 min, which we determined was sufficient for the binding reaction to reach equilibrium. Fluorescence was measured on a K2 Multifrequency Fluorometer at 25 °C. All Cy5-labeled peptides were excited with polarized light at 635 nm and emission was detected using a 700/75 nm bandpass filter (ET series, Chroma). […] Data were fitted to one-site equilibrium binding using GraphPad Prism version 8.4 to determine KD. Results were the same when peptide binding was measured in the buffer used in SMOR assays (buffer C, below).

[3] = molecular target: T2, hCdh1^WD40 (Homo sapiens, UniProt Q9UM11); assay: SMOR assay, human Cdh1 WD40; assay type: binding; settings: human Cdh1, D-box binding; read-out: inferred kon
T2 construct: human Cdh1 (aa 165–484; pNH164); made in house; host or cells: Sf9 insect cells (baculovirus)
T2 sequence (Q9UM11 165-484): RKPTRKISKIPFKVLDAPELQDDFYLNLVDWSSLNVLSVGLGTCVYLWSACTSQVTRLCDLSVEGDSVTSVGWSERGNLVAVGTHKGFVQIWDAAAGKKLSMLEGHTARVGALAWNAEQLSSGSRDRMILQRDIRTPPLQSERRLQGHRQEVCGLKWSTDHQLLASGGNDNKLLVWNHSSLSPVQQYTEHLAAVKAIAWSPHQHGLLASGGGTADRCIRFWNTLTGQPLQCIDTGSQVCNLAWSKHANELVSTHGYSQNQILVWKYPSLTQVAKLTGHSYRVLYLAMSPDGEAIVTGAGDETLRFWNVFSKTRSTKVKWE
Procedure: as §1
(§2) For all SMOR experiments, 24 × 50 mm high precision glass coverslips (Bioscience Tools) and drilled microscope slides were passivated with a combination of PEG and PEG-biotin (coverslips) or PEG only (slides) following a previously published protocol for SiMPull[31]. Reaction chambers (~20 µl) were created using double-sided tape and epoxy. Protein was immobilized on the surface with 0.2 mg ml^−1 NeutrAvidin in buffer C (20 mM HEPES pH 7.5, 150 mM KCl, 10% glycerol, 0.05% Tween-20, 1 mM DTT). Excess NeutrAvidin was washed away and incubated with either biotin-conjugated mouse monoclonal anti-Strep-Tag II antibody (LSBio, Cat. No. LS-C203632-100) or biotin-conjugated rabbit polyclonal anti-GFP antibody (Rockland, Cat. No. 600-406-215) diluted in buffer C + BSA (0.1 mg ml^−1; Molecular Biology Grade Bovine Serum Albumin). Activator WD40 and activated APC/C (typically 50 µl containing about 65 ng APC/C, of which only a small fraction is immobilized on the glass) were immobilized using anti-Strep-Tag II, while APC/C alone was immobilized with anti-GFP. SMOR results were similar when performed in the buffer (wash buffer B) used in polarization anisotropy.
(§3) To capture dynamic protein–protein interactions, dye-labeled substrate diluted in buffer C + BSA was added to the chamber containing immobilized proteins. Interactions were imaged by TIRF microscopy as described below. For optimal signal-to-noise ratio, peptide concentration was no greater than 1 nM. Protein substrates included Hsl1 aa 667–872 and a C-terminal HaloTag followed by a TAP tag, and were produced by translation in rabbit reticulocyte lysates using TnT Quick Coupled Transcription/Translation System (Promega) (see Supplementary Table 5 for plasmids). Protein was purified with magnetic IgG beads and labeled on the bead with JF549 or JF646 dye so that unbound dye could be washed away. Purified dye-labeled protein was then cleaved from the beads using TEV protease. Before adding substrate to the reaction chamber, oxygen scavenging reagents were added (10 nM protocatechuate-3,4-dioxygenase, 2.5 mM protocatechuic acid, and 1 mM Trolox)[41]. A detailed description of the SMOR analysis pipeline is found in Supplementary Note 1.
(§4) Microscopy was performed with a Nikon Eclipse TE2000-E with Perfect Focus with a 100 × 1.49na oil, Apo TIRF DIC N2, 0.13-0.2, WD0.12 objective. Movies were recorded using the Andor iXon DU-897E-CSO. For visualizing GFP-tagged protein, a 491 nm laser was used with an ET525/50 (Chroma) filter for emission. For visualizing JF549-labeled substrate, a 561 nm laser was used with an ET595/50 (Chroma) filter for emission. For visualizing all Cy5-labeled peptides and JF646-labeled substrates, a 640 nm laser was used with an ET685/70 filter (Chroma) for emission. […]

[4] = molecular target: T3, Cdh1^WD40 (Saccharomyces cerevisiae, UniProt P53197); assay: SMOR assay (single-molecule off-rate, TIRF), yeast Cdh1^WD40; assay type: binding
T3 construct: the WD40 domains of yeast Cdh1 (aa 241–550; pNH144); made in house; host or cells: Sf9 insect cells (baculovirus)
T3 sequence (P53197 241-550): T1 sequence (P53197 241-550)
Procedure: as §1, §2, §3, §4

[5] = molecular target: T4, APC/C^apo (Saccharomyces cerevisiae, UniProt P38042+P53068); assay: SMOR assay, yeast APC/C^apo (no activator); assay type: binding
T4 construct: APC/C was purified from yeast cells; made in house; host or cells: S. cerevisiae W303 strain NHY13 (Cdc16-TAP, Apc1-GFP, cdh1 deleted)
Procedure: Yeast strains were derivatives of W303 and are listed in Supplementary Table 2. For APC/C purification, we used a strain carrying Cdc16-TAP and lacking Cdh1 (DOM1126); in most experiments, the strain also carried Apc1-GFP (NHY13). Yeast were grown in YPD media to OD600 = 0.8, collected and flash-frozen. Cells were lysed by bead beating in lysis buffer A (50 mM HEPES pH 7.5, 150 mM KCl, 10% glycerol, 0.2% Triton X-100, 63 µM B-glycerophosphate, 48 µM sodium fluoride, 1 µg ml^−1 pepstatin A, 1 µg ml^−1 leupeptin, 1 µg ml^−1 aprotinin, 1 mM PMSF, 1 mM DTT, 0.5 mM EDTA) and APC/C was purified using magnetic IgG beads. The beads were washed using wash buffer A (20 mM HEPES pH 7.5, 150 mM KCl, 10% Glycerol, 0.05% Triton X-100). After incubation with purified Cdh1 or Cdc20, the APC/C was cleaved off the beads with TEV protease in wash buffer A with 0.05% Tween-20 (for single-molecule studies) or 0.05% Triton X-100 (for ensemble assays such as ubiquitylation) and used immediately.
as §2, §3
Microscopy was performed with a Nikon Eclipse TE2000-E with Perfect Focus with a 100 × 1.49na oil, Apo TIRF DIC N2, 0.13-0.2, WD0.12 objective. Movies were recorded using the Andor iXon DU-897E-CSO. For visualizing GFP-tagged protein, a 491 nm laser was used with an ET525/50 (Chroma) filter for emission. For visualizing JF549-labeled substrate, a 561 nm laser was used with an ET595/50 (Chroma) filter for emission. For visualizing all Cy5-labeled peptides and JF646-labeled substrates, a 640 nm laser was used with an ET685/70 filter (Chroma) for emission. Initially, for each substrate tested, we acquired movies at multiple intervals to deduce the optimal interval to decrease bleaching. µManager version 2.0 was used to control the microscope and record time-lapse movies.

[6] = mean of the listed replicates, source data of Fig. 1a (there μM), read-out: Mean Kd
[7] = replicate 2021-11-10, source data of Fig. 1a (there μM), read-out: Kd
[8] = replicate 2019-07-08, source data of Fig. 1a (there μM), read-out: Kd

Cc1ncc([N+](=O)[O-])n1CCOC(=O)NC(Nc1ncccn1)C(Cl)(Cl)Cl (centres unmarked) [Apcin]
activator specificity (in words) [1]: Cdc20 specificity

CC[C@H](C)[C@H](NC(=O)[C@H](CC(=O)O)NC(=O)[C@H](CO)NC(=O)[C@H](CC(C)C)NC(=O)[C@H](C)NC(=O)[C@H](C)NC(=O)[C@H](CCCNC(=N)N)NC(=O)[C@H](CCCCN)NC(=O)[C@@H]1CCCN1C(=O)[C@H](CCCCN)NC(=O)[C@H](CCC(N)=O)NC(=O)[C@@H](N)CCC(=O)O)C(=O)N[C@H](C(=O)N[C@@H](CC(N)=O)C(=O)N[C@@H](CO)C(=O)N[C@@H](Cc1ccccc1)C(=O)N[C@@H](CC(N)=O)C(=O)N[C@@H](CCCCN)C(=O)N[C@@H](CCSC)C(=O)N[C@@H](CC(N)=O)C(=O)N[C@@H](CCCCN)C(=O)O)[C@@H](C)O [Hsl1 D box] (H-EQKPKRAALSDITNSFNKMNK-OH)
Kd [2, 6]: 3.48 µM
kon [3]: 100000 M⁻¹ s⁻¹
kon ([4]; inferred from koff and anisotropy KD, yeast Cdh1, read-out: association rate constant kon): 800000 M⁻¹ s⁻¹
koff ([4]; reciprocal of mean dwell time, read-out: dissociation rate constant koff): 2.8 s⁻¹

(Cy5)-SLIFDAFNQIR [Cdh1 IR, Cy5-labeled yeast Cdh1 C-terminal IR peptide]
Dwell Time ([5]; Supplementary Table 1, replicate 1 (movie listed first)): 0.616 ± 0.019 s
Dwell Time ([5]; Supplementary Table 1, replicate 2 (movie listed second)): 0.557 ± 0.011 s
mean dwell time ([5]; representative movie, ± SE, buffer C + BSA): 0.616 ± 0.02 s

EQKPKRAALSDITNSFNKMN-K(Cy5) [Hsl1 D box and dark KEN mutant, Cy5 Hsl1 D box peptide (10 nM) in presence of unlabeled mutated Hsl1 KEN (100 µM)]
Kd [2, 6]: 2.86 µM
Kd [2, 7]: 2.16 µM
Kd ([2]; replicate 2021-11-15, source data of Fig. 1a (there μM), read-out: Kd): 3.56 µM
Kd ([2]; representative single experiment, Fig. 1c, dark = unlabeled peptide 100 µM, read-out: KD): 3.6 µM

EQKPKRAALSDITNSFNKMN-K(Cy5) [Hsl1 D box and dark KEN, Cy5 Hsl1 D box peptide (10 nM) in presence of unlabeled Hsl1 KEN (100 µM)]
Kd [2, 6]: 1.12 µM
Kd [2, 7]: 1.04 µM

GVSTNKENEGPEYPTKIE-K(Cy5) [Hsl1 KEN and dark D box mutant, Cy5 Hsl1 KEN peptide (10 nM) in presence of unlabeled mutated Hsl1 D box (100 µM)]
Kd [2, 6]: 10.9 µM
Kd [2, 8]: 6.35 µM
Kd [2, 7]: 15.5 µM

GVSTNKENEGPEYPTKIE-K(Cy5) [Hsl1 KEN and dark D box, Cy5 Hsl1 KEN peptide (10 nM) in presence of unlabeled Hsl1 D box (100 µM)]
Kd [2, 6]: 3.37 µM
Kd [2, 8]: 3.41 µM
Kd [2, 7]: 3.34 µM
